{"source": "ChEMBL document CHEMBL1133601", "about": "“Methyl-substituted dispiro-1,2,4,5-tetraoxanes: correlations of structural studies with antimalarial activity” (J Med Chem, 2000)", "key": {"Plasmodium falciparum [1]": {"tested_on": "Plasmodium falciparum", "test": "In vitro antimalarial activity against Plasmodium falciparum W2 (Indochina)", "type": "functional, organism-based"}, "Plasmodium falciparum [2]": {"tested_on": "Plasmodium falciparum", "test": "In vitro antimalarial activity against Plasmodium falciparum D6 (Sierra Leone)", "type": "functional, organism-based"}}, "note": "pIC50: −log10 of the molar value."}
{"smiles": "CC1(C)CCCCC12OOC1(CCCCC1(C)C)OO2", "note": "(stereo unspecified)", "values": [{"measurement": "pIC50", "setting": "Plasmodium falciparum [1]", "result": "< 6.00"}, {"measurement": "pIC50", "setting": "Plasmodium falciparum [2]", "result": "< 6.00"}]}
{"smiles": "C[C@@H]1CCC[C@@H](C)C12OOC1(OO2)[C@@H](C)CCC[C@@H]1C", "values": [{"measurement": "pIC50", "setting": "Plasmodium falciparum [1]", "result": "< 6.00"}, {"measurement": "pIC50", "setting": "Plasmodium falciparum [2]", "result": "< 6.00"}]}
{"smiles": "C[C@@H]1CC[C@H]2[C@@H](C)C(=O)O[C@@H]3O[C@@]4(C)CC[C@@H]1[C@]32OO4", "note": "[ARTEMISININ]", "values": [{"measurement": "pIC50", "setting": "Plasmodium falciparum [1]", "result": 8.14}, {"measurement": "pIC50", "setting": "Plasmodium falciparum [2]", "result": 8.08}]}
